For five compounds, IC50, inhibition in vivo and inhibition results are on record in ChEMBL document CHEMBL1124228, “Synthesis of (aryloxy)alkylamines. 1. Novel antisecretory agents with H+K+-ATPase inhibitory activity” (J Med Chem, 1988).

Where only a bound is given, the exact number is not on record here.

Test [1] deals with T1, Potassium-transporting ATPase (Homo sapiens, UniProt P20648). The experiment in a line: Antisecretory activity evaluated by the inhibition of 14C -AP uptake in isolated rabbit parietal cells stimulated by exogenous histamine. The note with it: target entry is the homologue from another species. Type of test: functional, Oryctolagus cuniculus.
The test system of test [2] is Rattus norvegicus. The experiment in a line: Percent inhibition of total acid secretion in pylorus-ligated rats at an id dose of 10 mg/kg. Type of test: functional. The note with it: route intraduodenal.
Test [3] has as its target T2, Potassium-transporting ATPase (Homo sapiens, UniProt P20648+P51164). Kind of test: (§1) Antisecretory activity evaluated by the inhibition of 14C -AP uptake in isolated rabbit parietal cells stimulated by dibutyryl cyclic adenosine 3', 5' -monophosphate (dcAMP). Type of test: functional, Oryctolagus cuniculus. The note with it: target entry is the homologue from another species.

In test [4] the test system is Rattus norvegicus. Kind of test: Percent inhibition of total acid secretion in pylorus-ligated rats at an id dose of 20 mg/kg. Type of test: functional. The note with it: route intraduodenal.
The subject of test [5] is Rattus norvegicus. The experiment in a line: Percent inhibition of total acid secretion in pylorus-ligated rats at an id dose of 40 mg/kg. Type of test: functional. The note with it: route intraduodenal.
Test [6] relates to Rattus norvegicus. Kind of test: Effective dose required for the inhibition of total acid secretion in pylorus-ligated rats at 40 mg/kg. Type of test: functional.
In test [7] the target is T1, Potassium-transporting ATPase. Described as §1. Type of test: functional, Oryctolagus cuniculus. The note with it: target entry is the homologue from another species.
The test system of test [8] is Rattus norvegicus. The experiment in a line: Effective dose required for the inhibition of total acid secretion in pylorus-ligated rats at 20 mg/kg. Type of test: functional.
Test [9] concerns the target T2, Potassium-transporting ATPase. Kind of test: Evaluated for the inhibition of H+/K+ ATPase enzyme from fundic mucosa of white rabbits at 100 uM. Type of test: protein-complex assay. The note with it: Oryctolagus cuniculus, target entry is the homologue from another species.

T2 sequence (P20648 whole entry): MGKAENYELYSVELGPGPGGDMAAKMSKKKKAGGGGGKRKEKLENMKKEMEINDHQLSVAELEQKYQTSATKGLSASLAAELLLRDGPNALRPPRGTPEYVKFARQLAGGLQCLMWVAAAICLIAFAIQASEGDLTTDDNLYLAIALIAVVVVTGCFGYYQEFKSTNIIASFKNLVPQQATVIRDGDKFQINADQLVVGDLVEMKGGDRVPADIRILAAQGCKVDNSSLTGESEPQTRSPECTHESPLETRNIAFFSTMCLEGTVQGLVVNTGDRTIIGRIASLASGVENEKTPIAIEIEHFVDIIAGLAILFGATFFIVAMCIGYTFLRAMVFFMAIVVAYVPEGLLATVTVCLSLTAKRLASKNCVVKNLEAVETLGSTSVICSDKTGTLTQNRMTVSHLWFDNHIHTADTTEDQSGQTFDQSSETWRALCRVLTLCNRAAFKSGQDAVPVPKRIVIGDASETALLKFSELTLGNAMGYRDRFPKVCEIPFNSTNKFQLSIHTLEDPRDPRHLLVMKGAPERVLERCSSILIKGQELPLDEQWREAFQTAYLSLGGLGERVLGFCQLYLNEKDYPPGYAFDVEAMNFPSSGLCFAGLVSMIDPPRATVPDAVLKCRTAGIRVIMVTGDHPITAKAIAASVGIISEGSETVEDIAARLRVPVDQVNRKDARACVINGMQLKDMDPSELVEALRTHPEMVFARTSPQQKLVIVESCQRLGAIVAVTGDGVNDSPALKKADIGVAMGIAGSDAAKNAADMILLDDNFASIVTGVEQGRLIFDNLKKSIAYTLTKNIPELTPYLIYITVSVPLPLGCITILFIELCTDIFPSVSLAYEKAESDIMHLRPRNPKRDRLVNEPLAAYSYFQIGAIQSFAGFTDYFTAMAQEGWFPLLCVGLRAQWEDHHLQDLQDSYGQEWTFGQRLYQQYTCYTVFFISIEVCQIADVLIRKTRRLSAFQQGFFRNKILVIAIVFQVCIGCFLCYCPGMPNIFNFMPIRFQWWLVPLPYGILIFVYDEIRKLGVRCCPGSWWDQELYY
T2 sequence (P51164 whole entry): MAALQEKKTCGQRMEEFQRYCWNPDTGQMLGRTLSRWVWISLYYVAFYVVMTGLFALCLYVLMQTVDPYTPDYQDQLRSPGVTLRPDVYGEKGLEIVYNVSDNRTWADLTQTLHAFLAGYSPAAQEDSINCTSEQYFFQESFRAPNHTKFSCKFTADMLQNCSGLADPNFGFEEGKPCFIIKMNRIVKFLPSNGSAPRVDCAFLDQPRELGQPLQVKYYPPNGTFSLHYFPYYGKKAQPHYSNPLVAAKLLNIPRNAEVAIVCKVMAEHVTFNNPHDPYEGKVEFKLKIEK

One may read the IC50 as the concentration that gives 50% inhibition. By inhibition in vivo is commonly meant the percentage by which the read-out fell short of the control. The low end stands for a weak effect, the high end for a strong effect. `c1ccc(-c2nc(-c3ccc(OCCCn4ccnn4)cc3)cs2)cc1` yielded a 50% inhibitory concentration (IC50) in test [1] of 10 µM. The compound further gave an inhibition in vivo at 10 mg/kg with Rattus norvegicus [2] of 72%.

As for `c1ccc(-c2nc(-c3ccc(OCCCN4CCCC4)cc3)cs2)cc1`, the half-inhibitory concentration (IC50) in [1] was 0.39 µM; in test [3], less than 10 µM. Moreover, in the test with Rattus norvegicus [4], the inhibition in vivo at 20 mg/kg came to 36%.

`CCCCN(CCCC)CCCCOc1ccc(/C=C/c2nc3ccccc3o2)cc1`: testing at 40 mg/kg with Rattus norvegicus [5] gave an inhibition in vivo of 14%. Further, the half-inhibitory concentration (IC50) in test [1] was 0.18 µM; in [3], less than 10 µM.

`CCCN(CCC)CCCOc1ccc(-c2nc3ccccc3s2)cc1`: the concentration for half-maximal inhibition (IC50) was 0.21 µM in [1] and 0.14 µM in [7]. This compound also had an inhibition in vivo at 40 mg/kg with Rattus norvegicus [6] of 42%.

What is called inhibition is the share of the control response that was lost under treatment. High values mean a response far below the control, low ones a response near the control. In turn, `CCCCN(CCCC)CCCOc1ccc(-c2nc(-c3ccccc3)sc2C)cc1` displayed an inhibition in vivo at 20 mg/kg in the test with Rattus norvegicus [8] of 36%. Besides, the 50% inhibitory concentration (IC50) in test [1] stood at 0.27 µM; in test [7] it was 0.23 µM. For the same compound, the inhibition in [9] amounted to 65%.
